IC50 data for 19 compounds are collected here from US11584763B2, “Chromenopyridine derivatives as phosphatidylinositol phosphate kinase inhibitors” (HIBERCELL, INC., priority 2017, dated 2023).

Holding throughout (assay type): biochemical
Assay [1] deals with T1, PIP4K 2A (Homo sapiens, UniProt P48426).
T1 sequence (P48426 1-406): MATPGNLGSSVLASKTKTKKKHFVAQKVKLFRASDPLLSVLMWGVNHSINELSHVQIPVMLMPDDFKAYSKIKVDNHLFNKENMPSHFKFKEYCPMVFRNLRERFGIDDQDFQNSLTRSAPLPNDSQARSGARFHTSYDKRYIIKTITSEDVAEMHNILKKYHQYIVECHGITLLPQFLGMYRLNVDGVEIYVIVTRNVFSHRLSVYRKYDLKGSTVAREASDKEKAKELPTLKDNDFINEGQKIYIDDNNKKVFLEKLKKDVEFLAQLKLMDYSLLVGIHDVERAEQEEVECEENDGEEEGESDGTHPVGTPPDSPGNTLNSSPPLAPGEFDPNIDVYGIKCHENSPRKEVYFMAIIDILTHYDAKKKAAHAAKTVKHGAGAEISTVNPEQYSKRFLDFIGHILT
Description: ADP-glo kinase assay PIP4K 2A. Further details: 4 nM PIP4K2A (full length protein, SignalChem); purchased SignalChem. As to conditions: compounds listed under IC50 bin headings. In outline:
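Full-length PIP4K2A was pre-incubated 15 min at RT with compound in 20 mM MOPS pH 7.2, 25 mM MgCl2, 0.005% Tween 20. The enzyme mix held 4 nM kinase and 100 μM PI(5)P diC8, and ATP was added from a 60 μM solution. After 1 h at RT, ADP-Glo luminescence gave % inhibition versus DMSO, fitted to IC50 over 10 threefold dilutions.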

In a further assay the target is T2, PIP4K2B (Homo sapiens, UniProt P78356).
T2 construct: made in house; host or cells: E. coli
T2 sequence (P78356 1-416): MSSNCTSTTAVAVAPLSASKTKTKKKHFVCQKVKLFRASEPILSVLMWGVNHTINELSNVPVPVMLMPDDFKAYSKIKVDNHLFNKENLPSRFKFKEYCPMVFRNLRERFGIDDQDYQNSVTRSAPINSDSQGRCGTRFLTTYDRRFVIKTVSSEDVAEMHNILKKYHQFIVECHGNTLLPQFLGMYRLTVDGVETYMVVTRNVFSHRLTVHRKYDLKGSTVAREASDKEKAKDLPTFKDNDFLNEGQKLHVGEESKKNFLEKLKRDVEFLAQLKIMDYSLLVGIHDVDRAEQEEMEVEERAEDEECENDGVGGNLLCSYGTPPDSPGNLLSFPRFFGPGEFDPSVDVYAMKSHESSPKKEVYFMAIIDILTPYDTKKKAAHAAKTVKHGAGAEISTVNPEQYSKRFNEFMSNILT
As to the kind of experiment: Trans-FI P kinase assay PIP4K2B (PIP4KtypeIIB inhibition assay). To be noted: compounds listed under IC50 bin headings; 100 uM GTP; read-out: Trans-FI P kinase assays: PIP4K2B IC50. The procedure, abridged: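 GST-tagged human PIP4K2B (5 nM, E. coli-expressed) preincubated 1 h at 27 C with compound (top 4.8 uM, 5% DMSO), then reacted 2 h with 100 uM GTP and 80 uM PI5P/DOPE vesicles in HEPES pH 7.3, MgCl2, Triton X-100. GDP detected by Transcreener FI fluorescence via calibration curve; IC50 from % activity vs log[inhibitor].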

The target of assay [2] is T1, PIP4K 2A. Description: Kinase Assay PIP4K2 A (PIP4KtypeIIA inhibition assay). To be noted: compounds listed under IC50 bin headings. Further details: made in house; host or cells: E. coli. The procedure, abridged:
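GST-tagged enzyme from E. coli at 0.5 nM final was preincubated with compound for 1 h at 27 C, then reacted with 10 uM ATP, 80 uM PI5P and DOPE carrier in 50 mM HEPES pH 7.3, 5% DMSO. After 1 h, ADP was measured by ADP-Glo luminescence against a calibration curve. IC50 was fitted from % residual activity.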

pIC50: −log10 of the molar value. Some results are limits rather than exact numbers.

Take `CC1Oc2cc(N3CCCC3=O)ccc2-c2cnc(Nc3cncc(N4CCOCC4)c3)cc21` (stereo not drawn) [Example 96, 1-(5-methyl-3-((5-morpholinopyridin-3-yl)amino)-5H-chromeno[4,3-c]pyridin-8-yl)pyrrolidin-2-one]: the results for the pIC50 against PIP4K 2A [1], at PIP4K2B and on PIP4K 2A [2] were 8.00 to 9.00, 6.00 to 7.00 and 8.00 to 9.00, respectively.
As for `CC1Oc2cc(N3CCCC3=O)ccc2-c2cnc(Nc3cnc4cccnc4c3)cc21` (stereo not drawn) [Example 64, 1-(3-((1,5-naphthyridin-3-yl)amino)-5-methyl-5H-chromeno[4,3-c]pyridin-8-yl)pyrrolidin-2-one], the pIC50 (as a rule, the IC50 on a negative log10 scale, so that one unit is a factor of ten) is 7.00 to 8.00 on PIP4K 2A [1], 6.00 to 7.00 on PIP4K2B and 8.00 to 9.00 against PIP4K 2A [2].
On to `CS(=O)(=O)N1CCOc2ncc(Nc3cc4c(cn3)-c3ccc(N5CCCC5=O)cc3OC4)cc21` [Example 78, 1-(3-((1-(methylsulfonyl)-2,3-dihydro-1H-pyrido[2,3-b][1,4]oxazin-7-yl)amino)-5H-chromeno[4,3-c]pyridin-8-yl)pyrrolidin-2-one], for which the results for the pIC50 against PIP4K 2A [1], at PIP4K2B and at PIP4K 2A [2] were ≥ 9.00, 8.00 to 9.00 and ≥ 9.00, respectively.
Turning to `CC1Oc2cc(C(=O)N(C)C)ccc2-c2cnc(Nc3cnc4c(c3)N(S(C)(=O)=O)CCO4)cc21` (stereo not drawn) [Example 71, N,N,5-trimethyl-3-((1-(methylsulfonyl)-2,3-dihydro-1H-pyrido[2,3-b][1,4]oxazin-7-yl)amino)-5H-chromeno[4,3-c]pyridine-8-carboxamide], the pIC50 is ≥ 9.00 on PIP4K 2A [1], 8.00 to 9.00 at PIP4K2B and ≥ 9.00 at PIP4K 2A [2].
Consider `Cc1cncc(Nc2cc3c(cn2)-c2ccc(N4CCCC4=O)cc2OC3C)c1` (stereo not drawn) [Example 97, 1-(5-methyl-3-((5-methylpyridin-3-yl)amino)-5H-chromeno[4,3-c]pyridin-8-yl)pyrrolidin-2-one], for which the pIC50 on PIP4K 2A [1] is 8.00 to 9.00; on PIP4K2B, 6.00 to 7.00; against PIP4K 2A [2], ≥ 9.00.
The corresponding values for `CC1Oc2cc(N3CCCC3=O)ccc2-c2cnc(Nc3cccnn3)cc21` (stereo not drawn) [Example 128, 1-(5-methyl-3-(pyridazin-3-ylamino)-5H-chromeno[4,3-c]pyridin-8-yl)pyrrolidin-2-one] are 7.00 to 8.00, 6.00 to 7.00 and 8.00 to 9.00.
The corresponding values for `CC1Oc2cc(N3CCCC3=O)ccc2-c2cnc(Nc3cnc4c(c3)NCCO4)cc21` (stereo not drawn) [Example 94, 1-(3-((2,3-dihydro-1H-pyrido[2,3-b][1,4]oxazin-7-yl)amino)-5-methyl-5H-chromeno[4,3-c]pyridin-8-yl)pyrrolidin-2-one] are 8.00 to 9.00, 7.00 to 8.00 and 8.00 to 9.00.
The corresponding values for `CN(C)C(=O)c1ccc2c(c1)OC(C1CC1)c1cc(Nc3cnc4c(c3)N3C(=O)CC[C@H]3CO4)ncc1-2` (stereo partly drawn) [Example 36, 5-cyclopropyl-N,N-dimethyl-3-(((S)-9-oxo-6a,7,8,9-tetrahydro-6H-pyrido[2,3-b]pyrrolo[1,2-d][1,4]oxazin-2-yl)amino)-5H-chromeno[4,3-c]pyridine-8-carboxamide] are ≥ 9.00, 8.00 to 9.00 and ≥ 9.00.
Consider `COCCC(=O)N1CCN(c2cncc(Nc3cc4c(cn3)-c3ccc(N5CCCC5=O)cc3OC4(C)C)c2)CC1` [Example 170, 1-(3-((5-(4-(3-methoxypropanoyl)piperazin-1-yl)pyridin-3-yl)amino)-5,5-dimethyl-5H-chromeno[4,3-c]pyridin-8-yl)pyrrolidin-2-one], for which the figures for the pIC50 against PIP4K 2A [1], at PIP4K2B and on PIP4K 2A [2] were 8.00 to 9.00, 7.00 to 8.00 and ≥ 9.00, respectively.
The corresponding values for `CC1Oc2cc(N3CCCC3=O)ccc2-c2cnc(Nc3cncc(N4CCCC4=O)c3)cc21` (stereo not drawn) [Example 54, 1-(5-methyl-3-((5-(2-oxopyrrolidin-1-yl)pyridin-3-yl)amino)-5H-chromeno[4,3-c]pyridin-8-yl)pyrrolidin-2-one] are 8.00 to 9.00, 7.00 to 8.00 and ≥ 9.00.
With `CC1(C)Oc2cc(N3CCCC3=O)c(F)cc2-c2cnc(Nc3cnc4c(c3)OCCO4)cc21` [Example 167, 1-(3-((2,3-dihydro-[1,4]dioxino[2,3-b]pyridin-7-yl)amino)-9-fluoro-5,5-dimethyl-5H-chromeno[4,3-c]pyridin-8-yl)pyrrolidin-2-one], the pIC50 against PIP4K 2A [1] was ≥ 9.00; at PIP4K2B it was 7.00 to 8.00; against PIP4K 2A [2], ≥ 9.00.
`CC1Oc2cc(N3CCCC3=O)ccc2-c2cnc(Nc3ccnnc3)cc21` (stereo not drawn) [Example 127, 1-(5-methyl-3-(pyridazin-4-ylamino)-5H-chromeno[4,3-c]pyridin-8-yl)pyrrolidin-2-one]: the values for the pIC50 on PIP4K 2A [1], at PIP4K2B and at PIP4K 2A [2] were 6.00 to 7.00, < 6.00 and 7.00 to 8.00, respectively.
In the case of `CC1(C)Oc2cc(N3CCCC3=O)c(F)cc2-c2cnc(Nc3cncc(N4CCNC4=O)c3)cc21` [Example 149, 1-(5-((9-fluoro-5,5-dimethyl-8-(2-oxopyrrolidin-1-yl)-5H-chromeno[4,3-c]pyridin-3-yl)amino)pyridin-3-yl)imidazolidin-2-one], the pIC50 at PIP4K 2A [1] was 8.00 to 9.00; on PIP4K2B, 7.00 to 8.00; at PIP4K 2A [2] it was ≥ 9.00.
The corresponding values for `CC1Oc2cc(N3CCCC3=O)ccc2-c2cnc(Nc3cncc(OC(F)F)c3)cc21` (stereo not drawn) [Example 41, 1-(3-((5-(difluoromethoxy)pyridin-3-yl)amino)-5-methyl-5H-chromeno[4,3-c]pyridin-8-yl)pyrrolidin-2-one] are 7.00 to 8.00, < 6.00 and 8.00 to 9.00.
In the case of `CC1Oc2cc(N3CCCC3=O)ccc2-c2cnc(Nc3cnc4c(c3)N(C(=O)C(C)(C)O)CCO4)cc21` (stereo not drawn) [Example 59, 1-(3-((1-(2-hydroxy-2-methylpropanoyl)-2,3-dihydro-1H-pyrido[2,3-b][1,4]oxazin-7-yl)amino)-5-methyl-5H-chromeno[4,3-c]pyridin-8-yl)pyrrolidin-2-one], the pIC50 on PIP4K 2A [1] is ≥ 9.00; on PIP4K2B it was 8.00 to 9.00; against PIP4K 2A [2], ≥ 9.00.
Turning to `CC1Oc2cc(N3CCCC3=O)ccc2-c2cnc(Nc3cncc(N(C4CC4)S(C)(=O)=O)c3)cc21` (stereo not drawn) [Example 51, N-cyclopropyl-N-(5-((5-methyl-8-(2-oxopyrrolidin-1-yl)-5H-chromeno[4,3-c]pyridin-3-yl)amino)pyridin-3-yl)methanesulfonamide], the pIC50 on PIP4K 2A [1] is 8.00 to 9.00; at PIP4K2B, 7.00 to 8.00; on PIP4K 2A [2] it was ≥ 9.00.
The corresponding values for `CC1Oc2cc(N3CCCC3=O)ccc2-c2cnc(Nc3cnc4c(c3)N(C(=O)C3CC3)CCO4)cc21` (stereo not drawn) [Example 82, 1-(3-((1-(cyclopropanecarbonyl)-2,3-dihydro-1H-pyrido[2,3-b][1,4]oxazin-7-yl)amino)-5-methyl-5H-chromeno[4,3-c]pyridin-8-yl)pyrrolidin-2-one] are ≥ 9.00, 8.00 to 9.00 and ≥ 9.00.
With `CC1Oc2cc(N3CCCC3=O)ccc2-c2cnc(Nc3cncc(N4CCNC4=O)c3)cc21` (stereo not drawn) [Example 55, 1-(5-((5-methyl-8-(2-oxopyrrolidin-1-yl)-5H-chromeno[4,3-c]pyridin-3-yl)amino)pyridin-3-yl)imidazolidin-2-one], the pIC50 against PIP4K 2A [1] is 8.00 to 9.00; at PIP4K2B, 7.00 to 8.00; on PIP4K 2A [2], ≥ 9.00.
The corresponding values for `CC1Oc2cc(N3CCCC3=O)c(F)cc2-c2cnc(Nc3cnc4c(c3)N3C(=O)CC[C@H]3CO4)cc21` (stereo partly drawn) [Example 47, (6aS)-2-((9-fluoro-5-methyl-8-(2-oxopyrrolidin-1-yl)-5H-chromeno[4,3-c]pyridin-3-yl)amino)-6,6a,7,8-tetrahydro-9H-pyrido[2,3-b]pyrrolo[1,2-d][1,4]oxazin-9-one] are ≥ 9.00, 8.00 to 9.00 and ≥ 9.00.
